US10759836B2, “Cancer vaccine compositions and methods of use thereof” (UNIVERSITY OF WASHINGTON, priority 2014, dated 2020)
“Also recorded” adds a separate entry of the source.

Experiments:
[1] = tested on: small bowel tumor burden in APCmin mice; experiment: APCmin mouse model: small bowel tumor count after peptide vaccination; type: in vivo; conditions: for effect on small bowel tumor burden (tumor count): APCmin mice, vs CFA/IFA control, 50 ug per peptide s.c.; for peptide efficacy, APCmin Small Bowel (Spontaneous): summary table, Yes/No
Description: (§1) Offspring from APCmin were genotyped by PCR for the presence of the Min mutation using primers as follows: Wild-Type: 5′-[…]-3′ (SEQ ID NO: 46), Common 5′-[…]-3′ (SEQ ID NO: 47), Mutant: 5′-[…]-3′ (SEQ ID NO: 48). Both male and female mice testing positive for the Min mutation were included in the study and randomized into groups.
(§2) At 4-6 weeks of age, mice were immunized in CFA/IFA, PBS, and vaccine groups. Each group received subcutaneous injections (100 ul PBS, 50 ul CFA with 50 ul PBS, 50 ug per peptide with 50 ul CFA) once every 7-10 days for a total of three doses and one booster was given 4-5 weeks after the third vaccine. See Table 5 for peptides included in vaccine compositions. CFA was replaced with IFA after the first vaccine. All mice were sacrificed at 14 to 17 weeks of age, the gastrointestinal tracts were collected and tumors counted.

[2] = tested on: colon tumor burden in APCmin mice; experiment: APCmin mouse model: colon tumor count after peptide vaccination; type: in vivo; conditions: for effect on colon tumor burden (tumor count): APCmin mice, vs CFA/IFA control, 50 ug per peptide s.c.; for peptide efficacy, APCmin Colon (Spontaneous): summary table, Yes/No
Description: as §1, §2

[3] = tested on: small bowel tumor burden in APCmin mice; experiment: APCmin survival study: small bowel tumor count at sacrifice; type: in vivo; conditions: boosters every 4-5 weeks, vs CFA/IFA
Description: At 4-6 weeks of age, mice were immunized with CFA/IFA, PBS, and vaccine groups. Each group received subcutaneous injections (100 ul PBS, 50 ul CFA with 50 ul PBS, 50 ug per peptide with 50 ul CFA) once every 7-10 days for a total of three doses and a booster vaccine was given every 4-5 weeks after the third vaccine. See Table 6 for peptides included in vaccine compositions. CFA was replaced with IFA after the first vaccine. […] At sacrifice, small intestines were collected and small bowel tumors counted.

[4] = tested on: colon tumor burden in AOM mice (Azoxymethane + FVB); experiment: AOM mouse model: colon tumor count after peptide vaccination; type: in vivo; conditions: for effect on colon tumor burden (tumor count): AOM treated FVB mice, vs control group (CFA/IFA; PBS for IGF1R, PRL3, RCAS1); for peptide efficacy, Azoxymethane + FVB (Induced): summary table, Yes/No
Description: AOM mouse in-vivo experiments. At 6 weeks of age, FVB mice were immunized in CFA/IFA, PBS, and vaccine groups. Each group received subcutaneous injections (100 ul PBS, 50 ul CFA with 50 ul PBS, 50 ug per peptide with 50 ul CFA) once every 10-14 days for a total of three doses and a booster was given every 4-5 weeks after the third vaccine. See Table 7 for peptides included in vaccine compositions. CFA was replaced with IFA after the first vaccine. Seven days after the third vaccine, mice were injected with Azoxymethane (AOM) at 10 mg/kg, twice weekly for 6 weeks. At 26 weeks of age, all mice were sacrificed and tumors in the colon were counted.

[5] = tested on: MC-38 cells (murine adenocarcinoma); experiment: MC-38 tumor implant model: tumor volume after peptide vaccination; type: in vivo, C57Bl/6 mice; conditions: for effect on tumor volume: MC-38 tumor implant in C57Bl/6 mice, vs CFA/IFA; for peptide efficacy, MC-38 + B6 (Tumor Implant): summary table, Yes/No
Description: MC-38 tumor implant in-vivo experiments. At 6 weeks of age, mice were immunized in CFA/IFA, PBS, and vaccine groups. Each group received subcutaneous injections (100 ul PBS, 50 ul CFA with 50 ul PBS, 50 ug per peptide with 50 ul CFA) once every 10-14 days for a total of three doses. See Table 9 for peptides included in vaccine compositions. CFA was replaced with IFA for the second and third vaccines. Two weeks after the final vaccine, we subcutaneously implanted 4×10^4 MC-38 cells (murine adenocarcinoma), and measured tumor growth with Vernier calipers 2-3 times per week. Tumor volume was calculated as length×width×height×π/6, which is the standard volume calculation of an ellipsoid. Mice were sacrificed when tumor size in control mice reached greater than 1000 mm^3.

Substance | effect on small bowel tumor burden (tumor count) [1] | peptide efficacy, APCmin Small Bowel (Spontaneous) [1] | effect on colon tumor burden (tumor count) [2] | peptide efficacy, APCmin Colon (Spontaneous) [2] | effect on small bowel tumor burden (tumor count) [3] | effect on colon tumor burden (tumor count) [4] | peptide efficacy, Azoxymethane + FVB (Induced) [4] | effect on tumor volume [5] | peptide efficacy, MC-38 + B6 (Tumor Implant) [5]
CDC25B: peptide vaccine of CDC25B #38 (p130-150) and #39 (p405-427), 50 ug per peptide with CFA/IFA (chain 1 QAIQAASRIIRNEQFAIRRFQ; chain 2 VDGKHQDLKYISPETMVALLTGK; with CFA/IFA adjuvant) | significantly inhibits; also recorded: vaccine efficacy | Yes | does not significantly inhibit; also recorded: lack of CDC25B vaccine efficacy | No | does not significantly inhibit | vaccine efficacy; also recorded: significantly inhibits | Yes | significantly inhibits | Yes
COX2: peptide vaccine of COX-2 #32, #33, #34, 50 ug per peptide with CFA/IFA (chain 1 FKGFWNVVNNIPFLRN; chain 2 GLVPGLMMYATIWLREH; chain 3 GEVGFQIINTASIQSLIC; with CFA/IFA adjuvant) | significantly inhibits; also recorded: vaccine efficacy | Yes | does not significantly inhibit; also recorded: lack of COX2 vaccine efficacy | No | does not significantly inhibit | vaccine efficacy; also recorded: significantly inhibits | Yes | significantly inhibits | Yes
IGF1R: peptide vaccine of IGF1R #1, #2, #3, #4, 50 ug per peptide with CFA/IFA (chain 1 VVTGYVKIRHSHALV; chain 2 TQYAVYVKAVTLTMV; chain 3 LVIMLYVFHRKRNNS; chain 4 GMAYLNANKFVHRDL; with CFA/IFA adjuvant) | vaccine efficacy; also recorded: significantly inhibits | Yes | lack of IGF1R vaccine efficacy; also recorded: does not significantly inhibit | No | – | lack of IGF1R vaccine efficacy; also recorded: does not significantly inhibit | No | does not significantly inhibit | No
